Assay results taken from US20150322083A1, “(THIENO[2,3-b][1,5]BENZOXAZEPIN-4-YL)PIPERAZIN-1-YL COMPOUNDS AS SELECTIVE 5-HT2A INVERSE AGONISTS” (Eli Lilly and Company, priority 2014, published 2015).

How the values were obtained:
5-HT6 = 5-HT6 (Homo sapiens, UniProt P50406); experiment: 5-HT6 binding
Procedure: (§1) Curves are evaluated using a 4-parameter logistic nonlinear equation to obtain the concentration of competitor causing 50% inhibition of radioligand binding (IC50). Equilibrium dissociation constants (Ki) are calculated according to the equation Ki=IC50/(1+L/Kd), where L equals the concentration of radioligand used in the experiment and Kd equals the equilibrium dissociation constant of the radioligand for the receptor, determined from standard saturation analysis or homologous competition experiments. Reported values for Ki, where n values are indicated, are shown as geometric mean±the standard error of the mean (SEM), with the number of replicate determinations indicated by n. Geometric means are calculated by the equation GeoMean=10̂(Average(log Ki 1+log Ki 2+ . . . log Ki n)/[…]).
(§2) Further, the compounds of the invention may be tested in binding assays and functional activity assays by well known methods for other physiologically important receptors such as, but not limited to, the hERG channel, other serotonin receptors (specifically 5-HT1B receptors, lack of agonist activity at 5-HT2B receptors, 5-HT2C, 5-HT5, 5-HT6, and 5-HT7 receptors), dopaminergic receptors (specifically D1, D2, and D3), H1 receptors, GABAA receptors, adrenergic receptors and monoamine transporters.

5-HT5 = 5-HT5 (Homo sapiens, UniProt P47898); experiment: 5-HT5 binding
Chain of 5-HT5 (P47898 whole entry, species assumed): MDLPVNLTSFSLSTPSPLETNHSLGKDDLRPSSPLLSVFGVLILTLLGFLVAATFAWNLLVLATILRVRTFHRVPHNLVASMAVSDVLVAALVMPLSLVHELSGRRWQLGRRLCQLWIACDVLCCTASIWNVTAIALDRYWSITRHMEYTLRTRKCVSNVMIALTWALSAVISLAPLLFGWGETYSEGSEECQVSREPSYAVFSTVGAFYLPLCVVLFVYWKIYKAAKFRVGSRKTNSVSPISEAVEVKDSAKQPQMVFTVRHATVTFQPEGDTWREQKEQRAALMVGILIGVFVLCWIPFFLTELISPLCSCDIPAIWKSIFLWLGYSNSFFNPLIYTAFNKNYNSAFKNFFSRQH
Procedure: as §1, §2

5-HT2A receptor = target: T1, 5-HT2A receptor (Rattus norvegicus, UniProt P14842); experiment: 5-HT2A receptor occupancy in vivo (MDL 100907 tracer); design: species or system male Sprague-Dawley rats; settings: oral gavage, 1 hr. before tracer
T1 construct: from tissue; host or cells: rat brain (frontal cortex vs cerebellum), in vivo
T1 sequence (P14842 whole entry): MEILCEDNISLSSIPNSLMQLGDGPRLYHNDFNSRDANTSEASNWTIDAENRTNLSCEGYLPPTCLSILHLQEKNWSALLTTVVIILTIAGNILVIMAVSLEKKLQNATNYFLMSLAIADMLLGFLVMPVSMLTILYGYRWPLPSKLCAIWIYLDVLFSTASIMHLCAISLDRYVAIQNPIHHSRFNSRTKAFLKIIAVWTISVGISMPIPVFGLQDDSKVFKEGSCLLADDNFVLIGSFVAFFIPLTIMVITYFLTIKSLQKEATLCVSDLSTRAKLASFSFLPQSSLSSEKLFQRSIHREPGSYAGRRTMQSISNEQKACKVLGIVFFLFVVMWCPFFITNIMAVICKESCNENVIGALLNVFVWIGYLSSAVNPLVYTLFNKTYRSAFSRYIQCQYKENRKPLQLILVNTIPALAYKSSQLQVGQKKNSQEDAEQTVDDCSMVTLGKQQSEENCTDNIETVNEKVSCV
Procedure: Briefly, male Sprague-Dawley rats (Harlan Sprague-Dawley, Indianapolis, Ind.) weighing approximately 230-280 g are given ad lib access to food and water until the beginning of the 3 hr. experimental protocol. 1 mg/Kg ketanserin (non-selective 5-HT2A antagonist) is used as a positive control to establish assay validity. Test compounds or control are administered by oral gavage in a vehicle comprised of 20% hydroxypropyl beta-cyclodextrin. MDL 100907 ((R)-(+)-α-(2,3-Dimethoxyphenyl)-1-[2-(4-fluorophenyl)ethyl]-4-piperidinemethanol), a selective 5-HT2A antagonist, is used as a tracer. […] It is at the time of tracer administration that receptor occupancy (RO) is considered to be measured. […] The level of MDL 100907 tracer is measured in each cortical and cerebellar sample. RO is calculated using the well-established ratio method which employs a region of high receptor density representative of total binding (frontal cortex) normalized by an area without or with very low levels of receptor (cerebellum). […]
MDL 100907 Analysis: Cortex and cerebellar samples are weighed and placed in conical centrifuge tubes on ice. […] Standards are prepared by adding known quantities of analyte to brain tissue samples from non-treated rats and processing as described above.+− […]

[1] = target: recombinant human 5-HT2A receptor (Homo sapiens, UniProt P28223); experiment: 5-HT2A competition binding assay ([3H]-Ketanserin, SPA); design: expressed in transfected cells
Chain of recombinant human 5-HT2A receptor (P28223 whole entry): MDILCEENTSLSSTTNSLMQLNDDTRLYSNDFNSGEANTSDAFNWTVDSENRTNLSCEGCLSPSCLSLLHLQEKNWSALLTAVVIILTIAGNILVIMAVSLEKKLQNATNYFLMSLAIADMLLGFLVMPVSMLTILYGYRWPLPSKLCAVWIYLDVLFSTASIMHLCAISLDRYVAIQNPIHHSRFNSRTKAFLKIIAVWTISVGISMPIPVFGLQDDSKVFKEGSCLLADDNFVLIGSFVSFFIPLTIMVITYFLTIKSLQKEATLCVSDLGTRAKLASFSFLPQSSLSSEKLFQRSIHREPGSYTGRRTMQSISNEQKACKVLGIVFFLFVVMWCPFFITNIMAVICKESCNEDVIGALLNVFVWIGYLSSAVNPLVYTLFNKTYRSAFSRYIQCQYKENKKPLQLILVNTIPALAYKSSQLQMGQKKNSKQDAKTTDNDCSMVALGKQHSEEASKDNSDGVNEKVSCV
Procedure: [^3H]-Ketanserin binding experiments are carried out in SPA 96-well format. Membranes used in this assay are prepared from AV-12 cells stably expressing recombinant 5-HT2A receptors (human). The incubation is initiated by the addition of a mixture of WGA YSi SPA beads (1 mg/well, Perkin Elmer (MA, USA), Product No. RPNQ0011) and 2 μg membranes to assay buffer (67 mM Tris, 0.5 mM EDTA; pH 7.6) containing 3.1 nM [^3H]-Ketanserin and varying concentrations of the test compound (10 point concentration response curves). Non-specific binding is determined in the presence of 20 μM 1-(1-naphthyl)piperazine. Samples are incubated for 4 hr. at room temperature (22° C.) and then read in a microplate scintillation counter.
Curves are evaluated using a 4-parameter logistic nonlinear equation to obtain the concentration of competitor causing 50% inhibition of radioligand binding (IC50). Equilibrium dissociation constants (Ki) are calculated according to the equation Ki=IC50/(1+L/Kd), where L equals the concentration of radioligand used in the experiment and Kd equals the equilibrium dissociation constant of the radioligand for the receptor, determined from standard saturation analysis or homologous competition experiments. […]

Chain of 5-HT6 (P50406 whole entry, species assumed): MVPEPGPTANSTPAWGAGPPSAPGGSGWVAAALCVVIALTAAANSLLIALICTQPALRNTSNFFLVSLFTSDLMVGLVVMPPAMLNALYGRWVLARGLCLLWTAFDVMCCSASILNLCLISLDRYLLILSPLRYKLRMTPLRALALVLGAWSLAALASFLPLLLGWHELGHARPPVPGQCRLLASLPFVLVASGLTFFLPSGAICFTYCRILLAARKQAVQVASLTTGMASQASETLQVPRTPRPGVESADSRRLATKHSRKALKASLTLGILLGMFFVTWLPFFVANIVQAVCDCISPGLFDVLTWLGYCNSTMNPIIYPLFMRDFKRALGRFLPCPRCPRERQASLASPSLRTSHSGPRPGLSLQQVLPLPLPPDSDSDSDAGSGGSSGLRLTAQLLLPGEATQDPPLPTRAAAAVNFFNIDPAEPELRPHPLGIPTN

Cc1ccc2c(c1)Oc1sc(SC(C)C)cc1C(N1CCN(CC(C)(C)C(=O)O)CC1)=N2 [Example 1, 3-[4-(2-isopropylsulfanyl-8-methyl-thieno[2,3-b][1,5]benzoxazepin-4-yl)piperazin-1-yl]-2,2-dimethyl-propanoic acid]
Ki (5-HT6): 1130 nM | Ki (5-HT5): 6.71 µM | ED50 (5-HT2A receptor): 0.54 mg/kg | Ki [1]: 4.84 nM
